# Measurements reported in patent publication EP1272183B1, “METHODS AND COMPOSITIONS USEFUL IN ENHANCING OXYGEN DELIVERY TO CELLS” (Niadyne Corporation, priority 2000, dated 2001).
# How the values were obtained:
# [1] = system: skin of human volunteers; assay: Visual observation of vasodilation (blushing) after topical application of niacin ester lotions to the forearm; type: in vivo; conditions: for Vasodilation at 0.1% / Vasodilation Effect at 0.1% Duration / Vasodilation Effect at 0.1% Onset: 0.1% in skin lotion; for Vasodilation at 0.1% / Vasodilation at 1.0%: anterior surface of forearm, visual observation of blushing; for Vasodilation at 1.0%: 1.0% in skin lotion; for Vasodilation Effect at 0.1% Duration / Vasodilation Effect at 0.1% Onset: visual determination
# Method: This example details the first of two sets of experiments designed to determine the vasodilation effect of alkyl niacin esters. Formulations were prepared by combining the alkyl esters referred to supra in a skin lotion, at 0.1% and 1.0% concentrations. The lotions were applied topically to the skin of human volunteers on the anterior surface of a forearm. Vasodilation was observed visually, i.e., by observing blushing at the site of application, or lack thereof. Both onset and duration of vasodilation were measured.
# Table 1: Properties of Niacin Esters
# [2] = Determination of log P (Poct/w) values in accordance with Harnisch, et al.; type: physicochemical; conditions: experimentally determined, following Harnisch
# Method: The Poct/w values for these compounds were determined in accordance with Harnisch, et al., J. Chromatog.
# [3] = system: skin; assay: Skin oxygen and CO2 content measured with a transcutaneous monitor after topical application; type: in vivo, human
# Method: To examine this issue, the oxygen content of skin to which the octyl ester discussed supra was determined directly, using a transcutaneous oxygen monitor. The 1% formulation of the octyl ester was applied to skin for 30 minutes. After this thirty minute period, the skin was cleaned with soap and water, wiped with an alcohol swab, and a drop of deionized water was placed on the sensor surface before its attachment to the anterior surface of the volunteers' forearms. The transcutaneous values were recorded constantly, and stored by the instrument. The monitor measures relative oxygen content, because the temperature at which the monitor operates does impact the oxygen permeability of the stratum corneum. See, e.g., Martin, Resp. […] The sensor was calibrated at 4 hour intervals, or whenever the sensor temperature was changed.
# The monitor was operated at a temperature of 40°C. Values are given for both a control, and the formulation described herein.
# In a follow-up experiment, the monitor was op erated at 38°C, and both O2 and CO2 were measured, with a combined transcutaneous oxygen and CO2 monitor. […] The control is represented by the dotted line.
# Parallel experiments were carried out using 0.1% octyl niacin ester lotion, and a lotion containing octyl niacin ester (0.1 %), and 0.1 % butyl benzoate.
# Oxygen content was measured in the same way as is described, supra, or using other techniques known to the art.
# [4] = monitor at 38°C, versus control, Figure 3
SMILES,Vasodilation at 0.1% [1],Vasodilation at 1.0% [1],logP [2],other results
COC(=O)c1cccnc1 [1 carbon],Yes,Yes,,
"CCOC(=O)c1cccnc1 [2 carbons, Ethyl niacin]",Yes,Yes,,Vasodilation Effect at 0.1% Duration [1]: 30 to 45 min; Vasodilation Effect at 0.1% Onset [1]: 5 to 10 min
CCCCOC(=O)c1cccnc1 [4 carbons],Yes,Yes,2.4,
"CCCCCCOC(=O)c1cccnc1 [6 carbons, Hexyl niacin]",Yes,Yes,3.5,Vasodilation Effect at 0.1% Duration [1]: 60 to 90 min; Vasodilation Effect at 0.1% Onset [1]: 10 to 15 min
"CCCCCCCCOC(=O)c1cccnc1 [8 carbons, Octyl niacin]",Yes,Yes,,"Vasodilation Effect at 0.1% Duration [1]: 240 to 360 min; Vasodilation Effect at 0.1% Onset [1]: 10 to 20 min; Vasodilation Effect at 0.1% Duration ([1]; listed as C8): longest effect; skin oxygen (transcutaneous oxygen monitor) ([3]; 1% formulation applied to skin for 30 minutes, monitor at 40°C, versus control, Figure 2): sustained increase in skin oxygen; CO2 content (combined transcutaneous oxygen and CO2 monitor) [3, 4]: decrease in CO2 content; skin oxygen content (combined transcutaneous oxygen and CO2 monitor) [3, 4]: sustained increase in skin oxygen content"
CCCCCCCCCOC(=O)c1cccnc1 [9 carbons],No,Yes,,Vasodilation at 1.0% ([1]; listed as C9): caused vasodilation
CCCCCCCCCCOC(=O)c1cccnc1 [10 carbons],No,Yes,5.8,Vasodilation at 1.0% ([1]; listed as C10): caused vasodilation
CCCCCCCCCCCOC(=O)c1cccnc1 [11 carbons],No,Slight,,
CCCCCCCCCCCCOC(=O)c1cccnc1 [12 carbons],No,No,,logP ([2]; octanol/water): 6.6
CCCCCCCCCCCCCOC(=O)c1cccnc1 [13 carbons],No,No,7.5,
CCCCCCCCCCCCCCOC(=O)c1cccnc1 [14 carbons],No,No,,logP ([2]; octanol/water): 7.6
CCCCCCCCCCCCCCCOC(=O)c1cccnc1 [15 carbons],No,No,8.3,
CCCCCCCCCCCCCCCCOC(=O)c1cccnc1 [16 carbons],No,No,9.2,
CCCCCCCCCCCCCCCCCCOC(=O)c1cccnc1 [18 carbons],No,No,9.7,
"CCCCOC(=O)c1ccccc1 [Butyl benzoate, reference compound]",,,,"effect on the increase in oxygen content caused by octyl niacin ester ([3]; lotion containing octyl niacin ester (0.1 %) and 0.1 % butyl benzoate versus 0.1% octyl niacin ester lotion, Figure 4): blocked the increase in oxygen content; chromatographic logP ([2]; octanol/water): 3.5"
